# From patent US20050048587A1, “Methods for identifying tolerance modulatory compounds and uses therefor” (TolerRx, Inc., priority 2003, published 2005)
# Legend:
# Type in all cases: cell-based, human
# FOXP3 = FOXP3 transcription factor mRNA expression, real-time PCR, in stimulated PBL; details: PBL stimulated 72 hrs with anti-CD3/anti-CD28 in presence of agent; relative to stimulated PBL without agent
# Description: (§1) CD4+CD45RA+naïve, CD4+CD45RA−memory cells were prepared as follows. A Buffy Coat from human peripheral blood was obtained from the Oklahoma Blood Institute and processed as follows. Blood was diluted 1:2 with PBS without Ca^++Mg^++. 30 ml diluted blood was overlaid onto 15 ml Ficoll. Tubes were spun for ˜30 minutes at 2000 rpm. The Buffy cell layer was harvested into 25 ml PBS and brought to a volume of 45 ml total. Tubes were then spun ˜10 minutes at […]. Tubes were finally combined and washed with PBS. Approximately 10 percent of the cell preparation was set aside (X-VIVO 15 media+10% FCS) and is referred to hereinafter as “PBL.”
# (§2) Cells (i.e., PDL, CD4+ naive, and CD4+ memory cells), were plated in six well dishes at approximately 3-4×10^6 cells/well. Prior to plating, wells were coated with αCD3/αCD28 antibodies. This was achieved by incubating the wells in the presence of antibodies for approximately 2 hrs at 37° C. Wells were subsequently washed with PBS. Cells were plated in X-VIVO 15 with 10% FCS. […]
# (§3) 2.5 μl Assay on Demand reagent (Applied Biosystems) were added to 25 μl TaqMan Master MiX™ and samples brought to a total volume of 50 μl with RNAse-free water. […] Reactants were detected using an Applied Biosystems QPCR instrument (i.e., ABI Program 7000 SDS Sequence Detection System). […] The relative expression of the markers in each cell type and at each time point was also determined. […]
# Tbox21 = Tbox21 (TBX21) transcription factor mRNA expression, real-time PCR, in stimulated PBL; details: PBL stimulated 72 hrs with anti-CD3/anti-CD28 in presence of agent; relative to stimulated PBL without agent
# Description: as §1, §2, §3
# Th1 cytokines = assay: Cytokine production by differentiated Th1 cells, multiplexed ELISA; details: anti-CD3/CD-28 coated wells, 72 hrs with drug, supernatants
# Description: (§4) Resting, fully differentiated Th1, Th2 and Treg were seeded in wells sof a 96 well plate coated with anti-CD3 and CD-28. Cells (200,000 per well) were grown in the presence or absence of a known immunomodulatory drugs including rapamycin, cyclosporine A and Cellcept (MMF) (antiproliferative agent) at the concentrations indicated for 72 hrs prior to the collection of supernatants for measurement of secreted cytokines. Cytokine measurement were made using a multiplexed ELISA assay (Pierce/Endogen Searchlight Assay).
# TGFβ by Treg cells = assay: TGFβ production by differentiated Treg cells, multiplexed ELISA; details: anti-CD3/CD-28 coated wells, 72 hrs with drug, supernatants
# Description: as §4
# Th2 cytokines = assay: Cytokine production by differentiated Th2 cells, multiplexed ELISA; details: anti-CD3/CD-28 coated wells, 72 hrs with drug, supernatants
# Description: as §4
# Treg cells = assay: [3H] thymidine proliferation assay of differentiated Treg cells; details: anti-CD3/CD-28 coated wells, 72 hrs with drug, [3H] thymidine incorporation
# Description: (§5) Resting, fully differentiated Th1, Th2 and Treg were seeded in wells of a 96 well plate coated with anti-CD3 and CD-28. Cells (200,000 per well) were grown in the presence or absence of a known immunomodulatory drugs including rapamycin, cyclosporine A and Cellcept (MMF) (antiproliferative agent) at the concentrations indicated for 72 hrs prior to the addition of [^3H] thymidine. The cells were then incubated with [^3H] thymidine (0.5 μCi/well) for an additional 6-18 hrs and harvested. [^3H] thymidine incorporation was determined by liquid scintillation counting.
# Th2 cells = assay: [3H] thymidine proliferation assay of differentiated Th2 cells; details: anti-CD3/CD-28 coated wells, 72 hrs with drug, [3H] thymidine incorporation
# Description: as §5
# Th1 cells = assay: [3H] thymidine proliferation assay of differentiated Th1 cells; details: anti-CD3/CD-28 coated wells, 72 hrs with drug, [3H] thymidine incorporation
# Description: as §5
# [1] = test system: peripheral blood lymphocytes (PBLs); assay: Assay of cell proliferation of stimulated PBL; details: PBL stimulated with anti-CD3/anti-CD28, 72 hours
# Description: FIG. 3 graphically depicts the proliferation of peripheral blood lymphocytes (PBLs) at 72 hours post-stimulation with αCD3/αCD28 in the presence of the known immunomodulatory agents, rapamycin, cyclosporine, and Cellcept (MMF) (anti-proliferative agent). Proliferation is relative to that observed in control, stimulated PBL (in the absence of any added agent).
# PBL were activated with anti-CD3 in combination with anti-CD28 in the presence or absence of the known immunomodulatory drugs including dexamethasone, rapamycin, cyclosporine A and Cellcept (antiproliferative agent) at the concentrations indicated. At 72 hours, RNA was prepared from the treated cells and the untreated controls. Real-time PCR was performed using cDNA from the RNA and using the primers and probes for the three transcription factors. The data are set forth in FIG. 2A-D. Dexamethasone is documented to result in a shift of in vivo immune responses towards characteristics recognized to be associated with Th2 cells when administered to both humans and animals. […] Rapamycin and cyclosporine are general immunosuppressants utilized to prevent allograft rejection in humans. Both drugs are known to utilize common cellular components. […] Cellcept is an anti-proliferative agent also used in organ transplantation. Its primary effect on the immune system is believed to be simple reduction of lymphocyte proliferation.
# GATA3 = GATA3 transcription factor mRNA expression, real-time PCR, in stimulated PBL; details: PBL stimulated 72 hrs with anti-CD3/anti-CD28 in presence of agent; relative to stimulated PBL without agent
# Description: as §1, §2, §3
Molecule,effect on FOXP3 (Treg transcription factor) expression (FOXP3),effect on Tbox21/TBX21 (Th1 transcription factor) expression (Tbox21),effect on Th1 cytokine production (Th1 cytokines),effect on production of TGFβ by Treg cells (TGFβ by Treg cells),effect on Th2 cytokine production (Th2 cytokines),effect on proliferation (expansion) of Treg cells (Treg cells),effect on proliferation of Th2 cells (Th2 cells),effect on proliferation of Th1 cells (Th1 cells),effect on cell proliferation [1],effect on GATA3 (Th2 transcription factor) expression (GATA3)
TGFβ,induced,–,–,–,–,–,–,–,–,–
COc1c(C)c2c(c(O)c1C/C=C(\C)CCC(=O)OCCN1CCOCC1)C(=O)OC2 [Cellcept],did not affect,did not affect,does not suppress,does not suppress any cytokine measured except for TGFβ in T reg cells,does not suppress,equally inhibited the expansion of all cell types in a dose dependent manner,equally inhibited the expansion of all cell types in a dose dependent manner,equally inhibited the expansion of all cell types in a dose dependent manner,dose-dependent inhibition of proliferation,did not affect
"IL4: cytokine known to initiate the differentiation of Th2 cells (protein, UniProt P05112 25-153, looked up) Interleukin-4: HKCDITLQEIIKTLNSLTEQKTLCTELTVTDIFAASKNTTEKETFCRAATVLRQFYSHHEKDTRCLGATAQQFHRHKQLIRFLKRLDRNLWGLAGLNSCPVKEANQSTLENFLERLKTIMREKYSKCSS",–,–,–,–,–,–,–,–,–,clearly increased
